Experimental data from US6391847B1, “Method, polypeptides, nucleotide sequence of XOR-6, a vitamin D-like receptor from xenopus” (The Salk Institute for Biological Studies, priority 1995, dated 2002).

What was measured:
GAL-XOR-6 = test: cotransfection assay, activation of GAL-XOR6 in CV-1 cells; type: cell-based, Xenopus laevis; conditions: for activation of GAL-XOR-6 by agonist cocktail: cocktail: thyroid hormone 10^−7M, vitamin D3 10^−7M, all-trans RA 10^−6M, WY-14,643 5×10^−6M; for rank order potency of activation, esters differing in alkyl length (FIG. 3): 10^−6M of each compound
Description: FIG. 3 illustrates the activation of XOR-6 by a variety of amino benzoate derivatives. Thus, 10^−6M of each compound was tested in the co-transfection assay for its ability to activate GAL-XOR6.
It can be concluded, therefore, that XOR-6 defines a novel RXR-dependent, ligand-mediated signalling pathway.
pCMX-GAL4-XOR6 was constructed by cloning nucleotides encoding amino acids 103 to 386 of XOR-6 into the SalI to XbaI sites of pCMX-GAL4 (see U.S. Ser. No. 08/177,740).
(§1) CV-1 cells were maintained in DMEM containing 10% resin-charcoal stripped fetal bovine serum. Liposome-mediated transient transfections were performed using DOTAP reagent (Boehringer Manheim) at a concentration of 5 μg/ml in Opti-MEM (Gibco). After 12-18 hours, the cells were washed and fresh DMEM-10% serum was added, including receptor agonists if required. After a further 48 hour incubation, the cells were lysed and luciferase reporter gene assays and β-galactosidase transfection control assays performed. Reporter gene expression is normalized to the β-galactosidase transfection control and expressed as relative light units per O.D. per minute of β-galactosidase activity.

XOR-6 = test: cotransfection assay, activation of XOR-6 in transfected CV-1 cells; type: cell-based, Xenopus laevis; conditions: for activation of XOR-6 (agonist activity in the cotransfection assay): transfected CV-1 cells; for rank order potency of XOR-6 activation, ortho/meta/para amino ethyl benzoates: cotransfection assay
Description: A search for the XOR-6 ligand was instituted based on the presumption that the receptor and its ligand must be co-expressed at some time during development. Accordingly, an unbiased, bioassay directed screen for XOR-6 agonists was undertaken in HPLC fractionated organic extracts derived from a mixture of developmental stages. Total lipid extracts from a mixture of embryonic stages from fertilized eggs through swimming tadpoles were prepared and tested for the ability to activate both GAL-XOR6 or full-length XOR-6 in transfected CV-1 cells.
The total extract was partitioned between iso-octane and MeOH and again tested for bioactivity.
A suitable eukaryotic expression vector for use herein was constructed from the commercially available vector pCDNAI-AMP (Invitrogen). This vector allows expression from the strong cytomegalovirus early promoter, and bacteriophage T7 and SP6 promoter-driven production of sense and antisense RNA, respectively.
The cloning strategy employed was as follows: the three endogenous NcoI sites were removed by site directed mutagenesis, the polylinker region between XhoI and XbaI was removed by double digestion, endfilling and self ligation. […] The resulting plasmid, designated pCDG1, can be linearized with NotI to produce mRNA from the bacteriophage T7 promoter. The XOR-6 protein coding region was cloned between the NcoI and BamHI sites of pCDG1 and designated pCDG-XOR6.
as §1

XOR6:xRXRα heterodimer = test: co-transfection experiments, responsiveness of heterodimer to two ligands; type: cell-based, Xenopus laevis; conditions: receptor dependent manner
Description: Receptors were transfected into cells and incubated with the indicated concentrations of agonists.
A potentially significant property of the XOR6:xRXRα heterodimer is its responsiveness to two ligands. […] This synergism occurs at several dilutions of the XOR-6 agonist and concentrations of 9-cis RA (see FIG. 4). […] Such complexes would be ideal candidates for responding to combinations of graded morphogenetic signals during development.
as §1

xRXRα = biological target: T1, xRXRα (Xenopus laevis, UniProt P51128); test: protease protection assay (ligand binding), parallel experiment; conditions: parallel experiment with xRXRα
T1 construct: made in house; host or cells: coupled in vitro transcription/translation (TNT, Promega)
T1 sequence (P51128 1-488): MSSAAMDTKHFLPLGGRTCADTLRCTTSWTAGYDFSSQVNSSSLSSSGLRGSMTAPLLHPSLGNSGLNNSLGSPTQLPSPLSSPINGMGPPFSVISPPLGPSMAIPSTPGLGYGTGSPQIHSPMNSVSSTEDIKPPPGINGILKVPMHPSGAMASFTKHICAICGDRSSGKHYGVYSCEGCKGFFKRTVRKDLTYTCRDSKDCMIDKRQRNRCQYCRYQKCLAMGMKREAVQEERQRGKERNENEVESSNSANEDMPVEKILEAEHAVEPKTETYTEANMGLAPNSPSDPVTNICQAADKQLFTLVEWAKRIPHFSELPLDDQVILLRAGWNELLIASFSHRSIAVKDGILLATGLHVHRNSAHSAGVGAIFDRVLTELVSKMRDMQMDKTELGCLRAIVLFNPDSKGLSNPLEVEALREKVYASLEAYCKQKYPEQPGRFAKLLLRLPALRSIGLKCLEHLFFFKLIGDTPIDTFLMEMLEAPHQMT
Excerpt: Biol. 14:287-298 (1994) was utilized.

βRARE = test: interference of XOR-6 overexpression with retinoic acid signalling through βRARE in CV-1 cells; type: cell-based; conditions: 1 μg expression plasmid co-transfected into CV-1 cells with 5 μg tk-β REx2-luc, all-trans retinoic acid
Description: 1 μg of XOR-6 expression plasmid was co-transfected into CV-1 cells with 5 μg of tk-β REx2-luc, and challenged with the indicated concentrations of all-trans retinoic acid.
Because XOR-6:RXR heterodimers bind well to a retinoic acid response element, βRARE, it was tested whether overexpression of XOR-6 could influence retinoic acid signalling through this element. […] This effect was strongest with full-length XOR-6 (24% of wild-type activity) but still detectable with GAL-XOR-6 (44% of wild-type activity).
as §1

C=C1CC[C@H](O)C/C1=C/C=C1\CCC[C@]2(C)[C@@H]([C@H](C)CCCC(C)C)CC[C@@H]12 [vitamin D3, reference compound]
activation of GAL-XOR-6 by agonist cocktail (GAL-XOR-6): not activated

Nc1ccccc1C(=O)O [2-amino benzoic acid, reference compound]
activation of XOR-6 (agonist activity in the cotransfection assay) (XOR-6): not possible, however, to demonstrate XOR-6 activation

CCOC(=O)c1ccc(N)cc1 [4-AEB, 4-amino-ethyl benzoate]
rank order potency of activation, esters differing in alkyl length (FIG. 3) (GAL-XOR-6): 4-amino-butyl benzoate>3-amino-ethyl benzoate>4-amino-ethyl benzoate>>4-amino methyl benzoate
rank order potency of XOR-6 activation, ortho/meta/para amino ethyl benzoates (XOR-6): 3-AEB>4-AEB>>2-AEB
activation of XOR-6 (agonist activity in the cotransfection assay) (XOR-6): activated

Nc1ccc(C(=O)O)c(O)c1 [4-amino salicylic acid, reference compound]
activation of XOR-6 (agonist activity in the cotransfection assay) (XOR-6): not possible, however, to demonstrate XOR-6 activation

CCCCOC(=O)c1ccc(N)cc1
rank order potency of activation, esters differing in alkyl length (FIG. 3) (GAL-XOR-6): 4-amino-butyl benzoate>3-amino-ethyl benzoate>4-amino-ethyl benzoate>>4-amino methyl benzoate

CC1=C(/C=C/C(C)=C\C=C\C(C)=C\C(=O)O)C(C)(C)CCC1 [9-cis RA, 9-cis retinoic acid]
stimulation of reporter gene expression (XOR6:xRXRα heterodimer): stimulated reporter gene expression

N[C@@H](Cc1cc(I)c(Oc2ccc(O)c(I)c2)c(I)c1)C(=O)O [thyroid hormone, reference compound]
activation of GAL-XOR-6 by agonist cocktail (GAL-XOR-6): not activated

CCOC(=O)c1ccccc1N [2-AEB]
rank order potency of XOR-6 activation, ortho/meta/para amino ethyl benzoates (XOR-6): 3-AEB>4-AEB>>2-AEB
activation of XOR-6 (agonist activity in the cotransfection assay) (XOR-6): activated

Nc1cccc(C(=O)O)c1O [3-amino salicylic acid, reference compound]
activation of XOR-6 (agonist activity in the cotransfection assay) (XOR-6): not possible, however, to demonstrate XOR-6 activation

Cc1cccc(Nc2cc(Cl)nc(SCC(=O)O)n2)c1C [WY-14,643, reference compound]
activation of GAL-XOR-6 by agonist cocktail (GAL-XOR-6): not activated

CCOC(=O)c1cccc(N)c1 [3-AEB]
rank order potency of activation, esters differing in alkyl length (FIG. 3) (GAL-XOR-6): 4-amino-butyl benzoate>3-amino-ethyl benzoate>4-amino-ethyl benzoate>>4-amino methyl benzoate
specificity of activation among an extensive collection of vertebrate nuclear receptors (XOR-6): specifically activates XOR-6 alone
activation of XOR-6 (agonist activity in the cotransfection assay) (XOR-6): potent agonist
activation of XOR-6 (agonist activity in the cotransfection assay) (XOR-6; listed as meta amino ethyl benzoate): activated
protection from trypsin cleavage (xRXRα): not seen

CC1=C(/C=C/C(C)=C/C=C/C(C)=C/C(=O)O)C(C)(C)CCC1 [all-trans RA, all-trans retinoic acid, reference compound]
activation of GAL-XOR-6 by agonist cocktail (GAL-XOR-6): not activated

COC(=O)c1ccc(N)cc1 [4-amino methyl benzoate]
rank order potency of activation, esters differing in alkyl length (FIG. 3) (GAL-XOR-6): 4-amino-butyl benzoate>3-amino-ethyl benzoate>4-amino-ethyl benzoate>>4-amino methyl benzoate

Nc1cccc(C(=O)O)c1 [3-amino benzoic acid, reference compound]
activation of XOR-6 (agonist activity in the cotransfection assay) (XOR-6): not possible, however, to demonstrate XOR-6 activation

Nc1ccc(C(=O)O)cc1 [4-amino benzoic acid, 4-amino-benzoic acid, reference compound]
activation of XOR-6 (agonist activity in the cotransfection assay) (XOR-6): not possible, however, to demonstrate XOR-6 activation

B1: GAL-XOR-6: GAL4 fusion with amino acids 103 to 386 of XOR-6 (pCMX-GAL4-XOR6) (protein)
chain: RKELIMSDAAVEQRRALIKRKHKLTKLPPTPPGASLTPEQQHFLTQLVGAHTKTFDFNFTFSKNFRPIRRSSDPTQEPQATSSEAFLMLPHISDLVTYMIKGIISFAKMLPYFKSLDIEDQIALLKGSVAEVSVIRFNTVFNSDTNTWECGPFTYDTEDMFLAGFRQLFLEPLVRIHRMMRKLNVQSEEYAMMAALSIFASYRPGVCDWEKIQKLQEHIALTLKDFIDSQRPPSPQNRLLYPKIMECLTELRTVNDIHSKQLLEIWDIQPDATPLMREVFGSPE
modifications: left off: large carriers
retinoic acid-responsiveness of βRARE promoter on co-expression (βRARE): 44 % of wild-type activity

B2: full-length XOR-6: Xenopus Orphan Receptor 6, about 386 amino acids (SEQ ID NO:2), overexpressed from plasmid (protein)
chain: MWKVQETLVLEEEEEEEDASNSCGTGEDEDDGDPKICRACGDRATGYHFNAMTCEGCKGFFRRAVKRNLRLSCPFQNSCVINKSNRRHCQACRLKKCLDIGMRKELIMSDAAVEQRRALIKRKHKLTKLPPTPPGASLTPEQQHFLTQLVGAHTKTFDFNFTFSKNFRPIRRSSDPTQEPQATSSEAFLMLPHISDLVTYMIKGIISFAKMLPYFKSLDIEDQIALLKGSVAEVSVIRFNTVFNSDTNTWECGPFTYDTEDMFLAGFRQLFLEPLVRIHRMMRKLNVQSEEYAMMAALSIFASYRPGVCDWEKIQKLQEHIALTLKDFIDSQRPPSPQNRLLYPKIMECLTELRTVNDIHSKQLLEIWDIQPDATPLMREVFGSPE
retinoic acid-responsiveness of βRARE promoter on co-expression (βRARE): 24 % of wild-type activity
